Test results taken from patent EP4692114A1, “CALCITONIN ANALOGUE, AND DERIVATIVE THEREOF AND USE THEREOF” (Hangzhou Sciwind Biosciences Co., Ltd., priority 2023, dated 2024).
*1 amine or outer side, *2 acyl side, *3 side chain or, on linkers, in order; H or OH if unused. Where a SMILES comes first, the peptide text is derived from it. The star is where a group is joined. C22 diacid = O=C(O)CCCCCCCCCCCCCCCCCCCCC(=O)*; C20 diacid = O=C(O)CCCCCCCCCCCCCCCCCCC(=O)*; C18 diacid = O=C(O)CCCCCCCCCCCCCCCCC(=O)*; γGlu = O=C(O)[C@H](CCC(=O)[*:2])N[*:1]; βAsp = O=C(O)[C@H](CC(=O)[*:2])N[*:1]; AEEA = NCCOCCOCC(=O)O; Inp = O=C(O)C1CCNCC1

What was measured:
human amylin receptors = biological target: T1, human amylin receptors (Homo sapiens, UniProt O60896+P30988); experiment: Luciferase assay of amylin (amylin receptor/CRE-luc cell line); type: cell-based; settings: stably transfected amylin receptor/CRE-luc CHO cells (CHO-K1/Gal5/AMY3), 24 hours incubation, luciferase readout;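 further: agonist potency from luminescence of cAMP response element-driven luciferase, EC50 derived from a standard curve of signal versus compound concentration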
T1 sequence (P30988 25-474): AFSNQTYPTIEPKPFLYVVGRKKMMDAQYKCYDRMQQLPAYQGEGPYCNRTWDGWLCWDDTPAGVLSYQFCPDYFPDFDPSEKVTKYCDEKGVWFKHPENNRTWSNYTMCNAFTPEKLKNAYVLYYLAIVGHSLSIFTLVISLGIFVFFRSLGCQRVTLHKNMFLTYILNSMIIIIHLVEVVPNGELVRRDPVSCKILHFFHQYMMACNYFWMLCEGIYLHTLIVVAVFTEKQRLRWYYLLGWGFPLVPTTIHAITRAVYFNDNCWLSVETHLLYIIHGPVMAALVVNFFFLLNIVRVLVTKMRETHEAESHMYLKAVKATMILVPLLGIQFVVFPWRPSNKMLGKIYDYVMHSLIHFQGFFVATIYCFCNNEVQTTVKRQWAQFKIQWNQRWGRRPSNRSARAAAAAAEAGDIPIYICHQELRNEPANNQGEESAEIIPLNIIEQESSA
T1 sequence (O60896 24-148 partner): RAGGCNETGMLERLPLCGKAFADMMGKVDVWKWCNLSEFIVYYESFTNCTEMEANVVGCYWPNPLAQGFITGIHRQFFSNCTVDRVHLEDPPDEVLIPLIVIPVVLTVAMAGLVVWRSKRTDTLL

[1] = Heat accelerated stability assay under a neutral condition; type: physicochemical; settings: pH about 7.4, 40°C; for Changes in characteristics or properties, 0d / Changes in characteristics or properties, 7d: 1 mg/mL, phosphate; for Concentration change (7d-0d)/%: Day 7 vs Day 0, reversed phase chromatography; for Purity Change% (7d-0d) / Purity Change% (26d-0d): purity from reversed phase chromatography-214 nm; for Purity Change% (7d-0d): Day 7 vs Day 0; for Purity Change% (26d-0d): Day 26 vs Day 0
Procedure: The lyophilized powder (1 mg/mL) of calcitonin analogues or derivatives prepared in accordance with the method of Example 1 were mixed with sodium dihydrogen phosphate (1.42 mg/mL) and dissolved in ultrapure water in the indicated mass-volume ratios. After adjusting pH to about 7.4 with hydrochloric acid/sodium hydroxide, the solution was filtered into a sterilized vial in a clean bench using a 0.22 µm sterile filter. The vial was then capped and placed into the stability test chamber at 40°C. Detections were made on Days 7 (7d) and 26 (26d), and during the assay, changes in the characteristics and properties of the polypeptides were observed and recorded. The sample was then centrifuged for 3 min at 10000 rpm at 4°C, and the supernatant was transferred to a liquid phase sample vial for detecting the concentration and purity of the polypeptides using liquid phase chromatography described as below, wherein the concentration of the polypeptide = peak area/injection volume/extinction coefficient/60×flow rate, and the purity of the polypeptide = target peak area/total peak area× 100%.
Conditions of the reversed phase chromatography Flow rate: 1.0 ml/min; Autosampler temperature: 15°C; Column temperature: 25°C; Detection wavelengths: 280 nm and 214 nm; Mobile phase A: 100% H2O+0.05% TFA; Mobile phase B: 100% ACN; and Gradient of elution listed in Table 4: Table 4. Listing of the gradient of elution in the liquid phase chromatography
Results were shown below in Tables 5, 6, and 7. A difference of more than 5% in content as compared with the initial value was typically assumed (for example, as prescribed by the Chinese Pharmacopeia (2020 Edition)) to be a significant change. Within a reasonable margin of error, a decrease of less than 1% from the initial value to the detected content is denoted as "no change" below. Table 5. Changes in characteristics or properties in the heat accelerated stability assay

Row | SMILES | EC50 (human amylin receptors) [nM] | Changes in characteristics or properties, 0d [1] | Changes in characteristics or properties, 7d [1] | Purity Change% (26d-0d) [1] [%] | Concentration change (7d-0d)/% [1] | Purity Change% (7d-0d) [1]
1 | CC(C)C[C@H](NC(=O)[C@H](CCCNC(=N)N)NC(=O)CNC(=O)[C@H](CC(C)C)NC(=O)[C@@H](NC(=O)[C@H](C)NC(=O)[C@@H](NC(=O)[C@H](CO)NC(=O)[C@H](CC(C)C)NC(=O)[C@H](CCC(N)=O)NC(=O)[C@H](CO)NC(=O)[C@H](C)NC(=O)COCCOCCNC(=O)COCCOCCNC(=O)CC[C@H](NC(=O)CCCCCCCCCCCCCCCCCCC(=O)O)C(=O)O)[C@@H](C)O)C(C)C)C(=O)N[C@@H](CO)C(=O)N[C@@H](CCC(=O)O)C(=O)N[C@@H](CCC(=O)O)C(=O)N[C@@H](CC(C)C)C(=O)N[C@@H](Cc1c[nH]cn1)C(=O)N[C@@H](CCCNC(=N)N)C(=O)N[C@@H](CC(C)C)C(=O)N[C@@H](CCC(N)=O)C(=O)N[C@@H](CC(=O)O)C(=O)N[C@@H](Cc1ccc(O)cc1)C(=O)N1CCC[C@H]1C(=O)N[C@@H](CCCNC(=N)N)C(=O)N[C@H](C(=O)N[C@@H](CC(=O)O)C(=O)N[C@H](C(=O)NCC(=O)N[C@@H](CO)C(=O)NCC(=O)N[C@@H](CO)C(=O)N1CCC[C@H]1C(N)=O)C(C)C)[C@@H](C)O [M57] ({C20 diacid-γGlu-AEEA-AEEA}-ASQLSTAVLGRLSEELHRLQDYPRTDVGSGSP-NH2) | 0.017 |  |  |  |  | 
2 | CC(C)C[C@H](NC(=O)[C@H](CCCNC(=N)N)NC(=O)CNC(=O)[C@H](CC(C)C)NC(=O)[C@@H](NC(=O)[C@H](C)NC(=O)[C@@H](NC(=O)[C@H](CO)NC(=O)[C@H](CC(C)C)NC(=O)[C@H](CCC(N)=O)NC(=O)[C@H](CO)NC(=O)[C@H](C)NC(=O)COCCOCCNC(=O)COCCOCCNC(=O)COCCOCCNC(=O)COCCOCCNC(=O)CC[C@H](NC(=O)CCCCCCCCCCCCCCCCCCCCC(=O)O)C(=O)O)[C@@H](C)O)C(C)C)C(=O)N[C@@H](CO)C(=O)N[C@@H](CCC(=O)O)C(=O)N[C@@H](CCC(=O)O)C(=O)N[C@@H](CC(C)C)C(=O)N[C@@H](Cc1c[nH]cn1)C(=O)N[C@@H](CCCNC(=N)N)C(=O)N[C@@H](CC(C)C)C(=O)N[C@@H](CCC(N)=O)C(=O)N[C@@H](CC(=O)O)C(=O)N[C@@H](Cc1ccc(O)cc1)C(=O)N1CCC[C@H]1C(=O)N[C@@H](CCCNC(=N)N)C(=O)N[C@H](C(=O)N[C@@H](CC(=O)O)C(=O)N[C@H](C(=O)NCC(=O)N[C@@H](CO)C(=O)NCC(=O)N[C@@H](CO)C(=O)N1CCC[C@H]1C(N)=O)C(C)C)[C@@H](C)O [M67] ({C22 diacid-γGlu-AEEA-AEEA-AEEA-AEEA}-ASQLSTAVLGRLSEELHRLQDYPRTDVGSGSP-NH2) | 0.017 |  |  |  |  | 
3 | CC(C)C[C@H](NC(=O)[C@H](CCCNC(=N)N)NC(=O)CNC(=O)[C@H](CC(C)C)NC(=O)[C@@H](NC(=O)[C@H](C)NC(=O)[C@@H](NC(=O)[C@H](CO)NC(=O)[C@H](CC(C)C)NC(=O)[C@H](CCC(N)=O)NC(=O)[C@H](CO)NC(=O)[C@H](C)NC(=O)COCCOCCNC(=O)COCCOCCNC(=O)CC[C@H](NC(=O)CCCCCCCCCCCCCCCCCCCCC(=O)O)C(=O)O)[C@@H](C)O)C(C)C)C(=O)N[C@@H](CO)C(=O)N[C@@H](CCC(=O)O)C(=O)N[C@@H](CCC(=O)O)C(=O)N[C@@H](CC(C)C)C(=O)N[C@@H](Cc1c[nH]cn1)C(=O)N[C@@H](CCCNC(=N)N)C(=O)N[C@@H](CC(C)C)C(=O)N[C@@H](CCC(N)=O)C(=O)N[C@@H](CC(=O)O)C(=O)N[C@@H](Cc1ccc(O)cc1)C(=O)N1CCC[C@H]1C(=O)N[C@@H](CCCNC(=N)N)C(=O)N[C@H](C(=O)N[C@@H](CC(=O)O)C(=O)N[C@H](C(=O)NCC(=O)N[C@@H](CO)C(=O)NCC(=O)N[C@@H](CO)C(=O)N1CCC[C@H]1C(N)=O)C(C)C)[C@@H](C)O [M66] ({C22 diacid-γGlu-AEEA-AEEA}-ASQLSTAVLGRLSEELHRLQDYPRTDVGSGSP-NH2) | 0.017 |  |  |  |  | 

More lines, main results first:

Row | EC50 (human amylin receptors) [nM] | Changes in characteristics or properties, 0d [1] | Changes in characteristics or properties, 7d [1] | Purity Change% (26d-0d) [1] [%] | SMILES | Concentration change (7d-0d)/% [1] | Purity Change% (7d-0d) [1]
4 | 0.017 | Clear | Clear | -1.96 | CC(C)C[C@H](NC(=O)[C@H](CCCNC(=N)N)NC(=O)CNC(=O)[C@H](CC(C)C)NC(=O)[C@@H](NC(=O)[C@H](C)NC(=O)[C@@H](NC(=O)[C@H](CO)NC(=O)[C@H](CC(C)C)NC(=O)[C@H](CCC(N)=O)NC(=O)[C@H](CO)NC(=O)[C@H](C)NC(=O)C[C@H](NC(=O)CCCCCCCCCCCCCCCCCCC(=O)O)C(=O)O)[C@@H](C)O)C(C)C)C(=O)N[C@@H](CO)C(=O)N[C@@H](CC(=O)O)C(=O)N[C@@H](CCC(=O)O)C(=O)N[C@@H](CC(C)C)C(=O)N[C@@H](Cc1c[nH]cn1)C(=O)N[C@@H](CCCNC(=N)N)C(=O)N[C@@H](CC(C)C)C(=O)N[C@@H](CCC(N)=O)C(=O)N[C@@H](CC(=O)O)C(=O)N[C@@H](Cc1ccc(O)cc1)C(=O)N1CCC[C@H]1C(=O)N[C@@H](CCCNC(=N)N)C(=O)N[C@H](C(=O)N[C@@H](CC(=O)O)C(=O)N[C@H](C(=O)NCC(=O)N[C@@H](CO)C(=O)NCC(=O)N[C@@H](CO)C(=O)N1CCC[C@H]1C(N)=O)C(C)C)[C@@H](C)O [M43] ({C20 diacid-βAsp}-ASQLSTAVLGRLSDELHRLQDYPRTDVGSGSP-NH2) | No change (a decrease of less than 1% from the initial value to the detected content is denoted as "no change") | No change (a decrease of less than 1% from the initial value to the detected content is denoted as "no change")
5 | 0.016 | Clear | Clear | -3.76 | CC(C)C[C@H](NC(=O)[C@H](CCCNC(=N)N)NC(=O)CNC(=O)[C@H](CC(C)C)NC(=O)[C@@H](NC(=O)[C@H](C)NC(=O)[C@@H](NC(=O)[C@H](CO)NC(=O)[C@H](CC(C)C)NC(=O)[C@H](CCC(N)=O)NC(=O)[C@H](CO)NC(=O)[C@H](C)NC(=O)[C@H](CC(=O)O)NC(=O)CCCCCCCCCCCCCCCCC(=O)O)[C@@H](C)O)C(C)C)C(=O)N[C@@H](CO)C(=O)N[C@@H](CC(=O)O)C(=O)N[C@@H](CCC(=O)O)C(=O)N[C@@H](CC(C)C)C(=O)N[C@@H](Cc1c[nH]cn1)C(=O)N[C@@H](CCCNC(=N)N)C(=O)N[C@@H](CC(C)C)C(=O)N[C@@H](CCC(N)=O)C(=O)N[C@@H](CC(=O)O)C(=O)N[C@@H](Cc1ccc(O)cc1)C(=O)N1CCC[C@H]1C(=O)N[C@@H](CCCNC(=N)N)C(=O)N[C@H](C(=O)N[C@@H](CC(=O)O)C(=O)N[C@H](C(=O)NCC(=O)N[C@@H](CO)C(=O)NCC(=O)N[C@@H](CO)C(=O)N1CCC[C@H]1C(N)=O)C(C)C)[C@@H](C)O [M44] ({C18 diacid}-DASQLSTAVLGRLSDELHRLQDYPRTDVGSGSP-NH2) | -2.285% | -1.15%
6 | 0.017 |  |  |  | CC(C)C[C@H](NC(=O)[C@H](CCCNC(=N)N)NC(=O)CNC(=O)[C@H](CC(C)C)NC(=O)[C@@H](NC(=O)[C@H](C)NC(=O)[C@@H](NC(=O)[C@H](CO)NC(=O)[C@H](CC(C)C)NC(=O)[C@H](CCC(N)=O)NC(=O)[C@H](CO)NC(=O)[C@H](C)NC(=O)C1CCN(C(=O)CCCCCCCCCCCCCCCCCCC(=O)O)CC1)[C@@H](C)O)C(C)C)C(=O)N[C@@H](CO)C(=O)N[C@@H](CCC(=O)O)C(=O)N[C@@H](CCC(=O)O)C(=O)N[C@@H](CC(C)C)C(=O)N[C@@H](Cc1c[nH]cn1)C(=O)N[C@@H](CCCNC(=N)N)C(=O)N[C@@H](CC(C)C)C(=O)N[C@@H](CCC(N)=O)C(=O)N[C@@H](CC(=O)O)C(=O)N[C@@H](Cc1ccc(O)cc1)C(=O)N1CCC[C@H]1C(=O)N[C@@H](CCCNC(=N)N)C(=O)N[C@H](C(=O)N[C@@H](CC(=O)O)C(=O)N[C@H](C(=O)NCC(=O)N[C@@H](CO)C(=O)NCC(=O)N[C@@H](CO)C(=O)N1CCC[C@H]1C(N)=O)C(C)C)[C@@H](C)O [M56] ({C20 diacid-Inp}-ASQLSTAVLGRLSEELHRLQDYPRTDVGSGSP-NH2) |  | 
